Source: patent US20110015248A1, “SUBSTITUTED HETEROCYCLES” (INTERMED DISCOVERY GMBH, priority 2003, published 2011)
Read-outs that look alike come from different tables or passages of the source.

Key:
[1] = target: T1, Human red blood cell S20 proteasome (Homo sapiens, UniProt P28074); assay: Proteasome inhibition assay; assay type: biochemical
T1 construct: host or cells: human red blood cells (native tissue preparation)
Protocol: The test compound is diluted at various concentrations in 2.5% DMSO in a polypropylene 96 well plate. […] The diluted working solution (10 μl/well) is transferred into a polypropylene 96 well plate. The assay buffer consists of 50 mM Tris-HCl (pH 8.0), 0.5 mM EDTA, 0.005% TritonX-100, 0.005% SDS, prepared as a stock solution at 10× concentration. The peptide substrate (Suc-Leu-Leu-Val-Tyr-MCA; 3120v; Peptide Institute; Osaka, Japan) is stored at 10 mM in 100% DMSO. […] The compound and the substrate are preincubated for 10 min at room temperature. Then the mixture of the compound and the substrate (10 μl/well) is transferred to a black non-coated 384 well assay plate (Nunc) and autofluorescence emission is measured at 460 nm (λex, 360 nm) by using a ARVO fluorescence plate leader (Perkin Elmer, Tokyo, Japan).
Human red blood cell S20 proteasome are obtained from Affinity research products Ltd (Cat#PW8720; Exeter, UK) and stored at −80° C. The proteasome is diluted 1 in 1000 with 1× concentration of the assay buffer and 10 μl is added to the substrates and the inhibitor mixture in the plate. The proteolytic reaction is performed at room temperature. The fluorescence emission is continuously measured for 90 min. IC50 values of the compounds are determined at initial velocity of the reaction.

[2] = substrate Suc-Leu-Leu-Val-Tyr-MCA, room temperature, IC50 determined at initial velocity of the reaction, read-out: IC50

| Structure (SMILES) | melting point [°C] | IC50 [1, 2] [nM] | IC50 [1] [nM] |
| --- | --- | --- | --- |
| CCCCCC[C@H]1C(=O)N[C@](C(=O)SC2CCCCC2)([C@@H](O)[C@@H]2C=CCCC2)[C@@]1(C)O (stereo in doubt) | 85 | – | – |
| CCCCCC[C@H]1C(=O)N[C@](C(=O)SCCNC(C)=O)([C@@H](O)[C@@H]2C=CCCC2)[C@@]1(C)O (stereo in doubt) | 82 | – | – |
| CCCCCC[C@H]1C(=O)N[C@@]2([C@@H](O)C3CCCCC3)C(=O)O[C@@]12C (stereo in doubt) | 167 | – | – |
| CCCCCC[C@H]1C(=O)N[C@](C(=O)SCc2ccccc2)([C@@H](O)C2CCCCC2)[C@@]1(C)O [Example 17, 2-(Cyclohexyl-hydroxy-methyl)-4-hexyl-3-hydroxy-3-methyl-5-oxo-pyrrolidine-2-carbothioic acid S-benzyl ester] | 181 | 106 | – |
| CCCCCC[C@H]1C(=O)N[C@](C(=O)SCCC(=O)OC)([C@@H](O)C2CCCCC2)[C@@]1(C)O (stereo in doubt) | 132 | – | – |
| CCCCCC[C@H]1C(=O)N[C@](C(=O)SCCC(=O)OC)([C@@H](O)[C@@H]2C=CCCC2)[C@@]1(C)O [Example 12, 3-[2-(Cyclohex-2-enyl-hydroxy-methyl)-4-hexyl-3-hydroxy-3-methyl-5-oxo-pyrrolidine-2-carbonylsulfanyl]-propionic acid methyl ester] | 64 | – | 0.2 |
| CCCCCC[C@H]1C(=O)N[C@@]2([C@@H](O)[C@@H]3C=CCCC3)C(=O)O[C@@]12C [Example 1, (1R,4R,5S)-1-[(S)-(1S)-2-cyclohexen-1-yl(hydroxy)methyl]-4-hexyl-5-methyl-6-oxa-2-aza-bicyclo[3.2.0]heptane-3,7-dione] | – | – | 1 |
| CCCCCC[C@H]1C(=O)N[C@](C(=O)SCc2ccccc2)([C@@H](O)[C@@H]2C=CCCC2)[C@@]1(C)O (stereo in doubt) | 138 | – | – |

Continued, in another order:

| melting point [°C] | IC50 [1, 2] [nM] | Structure (SMILES) | IC50 [1] [nM] |
| --- | --- | --- | --- |
| 123 | – | CCCCCC(O)[C@H]1C(=O)N[C@](C(=O)SCc2ccccc2)([C@@H](O)[C@@H]2C=CCCC2)[C@@]1(C)O (stereo in doubt) [Example 14, 2-(Cyclohex-2-enyl-hydroxy-methyl)-3-hydroxy-4-(1-hydroxy-hexyl)-3-methyl-5-oxo-pyrrolidine-2-carbothioic acid S-benzyl ester] | – |
| – | 305 | CCCCCC(O)[C@H]1C(=O)N[C@](C(=O)O)(C(O)[C@@H]2C=CCCC2)[C@@]1(C)O (stereo partly drawn) [Example 4, (3S,4R)-2-[(S)-(1S)-2-cyclohexen-1-yl(hydroxy)methyl]-3-hydroxy-4-[1-hydroxy-hexyl]-3-methyl-5-oxo-D-proline] | – |
| 144 | – | CCCCCC(O)[C@H]1C(=O)N[C@@]2(C(O)[C@@H]3C=CCCC3)C(=O)O[C@@]12C (stereo partly drawn) | – |
| 75 | – | CCCCCC(O)[C@H]1C(=O)N[C@](C(=O)SCC(=O)OC)([C@@H](O)[C@@H]2C=CCCC2)[C@@]1(C)O (stereo in doubt) | – |
| 80 | – | CCCCCC(O)[C@H]1C(=O)N[C@](C(=O)SCCNC(C)=O)([C@@H](O)[C@@H]2C=CCCC2)[C@@]1(C)O (stereo in doubt) | – |
